Data published in article PMC11256326, “Discovery of Heparin Mimetic, Potent, and Selective Inhibitors of Human Clotting Factor XIIIa” (ACS Omega, 2024).

Key:
thrombin [1] = biological target: T1, thrombin (Homo sapiens, UniProt P00734); test: chromogenic substrate hydrolysis assay, thrombin; assay type: biochemical; settings: for IC50: Tris-HCl pH 7.4, 37 °C, > values from highest concentration used; for thrombin HS (Hill slope) / thrombin ΔY (efficacy): pH 7.4, 37 °C
T1 construct: Human plasma proteins such as FXIIIa, thrombin, factor Xa, and factor XIa; purchased Haematologic Technologies; host or cells: human plasma
From the text: (§1) One of the motivations for targeting anion-binding sites on human FXIIIa was to achieve selectivity in inhibition over closely related enzymes such as other clotting serine proteases or other transglutaminases and cysteine proteases.
(§2) Human plasma proteins such as FXIIIa, thrombin, factor Xa, and factor XIa were procured from Haematologic Technologies. Recombinant human TG-2 was sourced from Tocris Bioscience. Their activities were validated according to the supplier’s instructions. Chromogenic substrates for thrombin and factor Xa were acquired from Biomedica Diagnostics, while the factor XIa chromogenic substrate (S-2366) was obtained from Diapharma. Dithiothreitol, N,N-dimethylcasein, and dansylcadaverine were purchased from Sigma Aldrich. Stock solutions of thrombin and factor XIa were prepared in 50 mM Tris-HCl buffer, pH 7.4, containing 150 mM sodium chloride, 0.1% PEG8000, and 0.02% Tween80. The stock solution of factor Xa was prepared in 20 mM Tris-HCl buffer, pH 7.4, containing 100 mM sodium chloride, 0.1% PEG8000, 2.5 mM CaCl2, and 0.02% Tween80. The stock solutions of FXIIIa and rTG-2 were prepared in 50 mM Tris-HCl, 1 mM CaCl2, 100 mM sodium chloride, 0.02% Tween80, 0.1% PEG8000, and 2 mg/mL dimethylcasein. Papain and its chromogenic substrate (N-α-benzoyl-L-arginyl-4-nitroanilide) were obtained from Sigma Aldrich. Papain was prepared in 50 mM Tris-HCl buffer, pH 7.4, containing 100 mM NaCl, 100 mM DTT, 2.5 mM CaCl2, 0.1% PEG8000, and 0.02% Tween80. Human plasma for coagulation assays was obtained from George King Bio-Medica for the clotting assays. Thromboplastin-D (PT reagent), APTT reagent containing ellagic acid, and 0.025 M solution of CaCl2 were obtained from Thermo Fisher Scientific. Results were reproduced at least three times.
(§3) The inhibitory potential of various heparin mimetics against other clotting factors, including thrombin, factor Xa, and factor XIa, was also examined using established chromogenic substrate hydrolysis assays.[47],[50] For instance, in each well of a 96-well microplate containing either 85 or 185 μL of 20–50 mM Tris-HCl buffer (pH 7.4), supplemented with 100–150 mM NaCl, 0.1% PEG8000, and 0.02% Tween80 at either 25 or 37 °C, 5 μL of the inhibitor (or high purity water) and 5 μL of the enzyme were added. The final concentrations of the enzymes were 6 nM (thrombin), 1.09 nM (factor Xa), and 0.8 nM (factor XIa). After a 5 min incubation period, 5 μL of Spectrozyme TH (final concentration: 0.050 mM), Spectrozyme FXa (0.125 mM), or factor XIa substrate (0.35 mM) was swiftly added, and the residual enzyme activity was gauged from the initial rate of increase in absorbance at λ405 nm. The relative residual enzyme activity was calculated as a function of the inhibitor concentration. If 50% or more of the enzyme was inhibited, the results were then plotted using eq 1 to determine the corresponding IC50 values.

factor XIa = biological target: T2, factor XIa (Homo sapiens, UniProt P03951); test: chromogenic substrate hydrolysis assay, factor XIa; assay type: biochemical; settings: for IC50: Tris-HCl pH 7.4, 37 °C, > values from highest concentration used, read-out: FXIa IC50; for FXIa HS (Hill slope) / FXIa ΔY (efficacy): pH 7.4, 37 °C
T2 construct: Human plasma proteins such as FXIIIa, thrombin, factor Xa, and factor XIa; purchased Haematologic Technologies; host or cells: human plasma
T2 sequence (P03951 388-625 limits assumed): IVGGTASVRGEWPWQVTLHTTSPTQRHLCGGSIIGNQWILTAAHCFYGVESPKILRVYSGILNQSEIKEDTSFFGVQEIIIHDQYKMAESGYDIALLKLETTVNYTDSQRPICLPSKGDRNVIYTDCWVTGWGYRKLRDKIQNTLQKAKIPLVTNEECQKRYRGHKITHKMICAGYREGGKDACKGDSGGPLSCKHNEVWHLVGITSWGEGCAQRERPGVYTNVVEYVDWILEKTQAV
T2 sequence (P03951 19-387 limits assumed): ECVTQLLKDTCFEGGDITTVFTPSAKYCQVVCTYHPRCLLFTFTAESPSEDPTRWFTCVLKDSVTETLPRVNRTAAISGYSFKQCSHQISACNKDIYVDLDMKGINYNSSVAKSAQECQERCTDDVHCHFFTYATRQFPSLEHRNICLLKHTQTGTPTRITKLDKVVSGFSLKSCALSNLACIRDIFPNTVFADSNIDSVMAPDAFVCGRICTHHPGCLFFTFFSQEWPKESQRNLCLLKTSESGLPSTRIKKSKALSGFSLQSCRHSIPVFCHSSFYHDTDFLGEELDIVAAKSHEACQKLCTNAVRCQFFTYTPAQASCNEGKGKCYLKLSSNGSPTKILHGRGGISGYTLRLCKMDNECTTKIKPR
From the text: as §1, §2, §3

normal human plasma = test: activated partial thromboplastin time (APTT) of normal human plasma; assay type: biochemical; settings: for APTT2X (concentration required to double APTT): normal human plasma, in vitro
Experimental: To further evaluate the selectivity as well as the potential toxicity of inhibitors, we studied their effects on the clotting times of normal human plasma as well as their effects on the proliferation of three cell lines. On the one hand, the inhibitors’ effects on activated partial thromboplastin time (APTT) and prothrombin time (PT) were measured, as described earlier under in vitro conditions,[52]−[55] using variable concentrations (0–2000 μM) (Table 3). […] On the other hand, the antiproliferative properties of inhibitors 13 and 16 were evaluated in three cell lines of breast (MCF-7), intestine (CaCo-2), and kidney (HEK-293) (Figure 5B), as described earlier.[56] […] Overall, inhibitor 16 can be considered for further development as a potent, selective, and nontoxic inhibitor of human FXIIIa.
Clotting times, including activated partial thromboplastin time (APTT) and prothrombin time (PT), were assessed in normal human plasma utilizing the BBL Fibrosystem fibrometer from Becton–Dickinson, as detailed in previous publications.[51]−[54] For the PT assay, thromboplastin-D was dissolved in 4 mL of highly purified water and then warmed to 37 °C. Subsequently, 10 μL of the inhibitor was added to 90 μL of normal human plasma and incubated for 30 s. Following this, 200 μL of prewarmed PT reagent was added, and the clotting time was recorded. In the APTT assay, 10 μL of the inhibitor was combined with 90 μL of normal human plasma and 100 μL of prewarmed APTT reagent (0.2% ellagic acid). After incubation for 4 min at 37 °C, clotting was initiated by adding 100 μL of prewarmed 0.025 M CaCl2, and the clotting time was documented. Multiple concentrations of each molecule were employed in both assays to establish a concentration vs effect curve.

thrombin [2] = test: chromogenic substrate hydrolysis assay, thrombin; assay type: biochemical, human
From the text: as §1, §2, §3

| SMILES | selectivity index for FXIIIa over factor XIa (factor XIa) [fold] | thrombin HS (Hill slope) (thrombin [1]) | thrombin ΔY (efficacy) (thrombin [1]) [%] | IC50 (thrombin [1]) [µM] | IC50 (factor XIa) [µM] | APTT2X (concentration required to double APTT) (normal human plasma) [µM] | selectivity index for FXIIIa over thrombin (thrombin [2]) | concentration to double APTT as fold of the FXIIIa-IC50 (normal human plasma) [fold] | FXIa HS (Hill slope) (factor XIa) | FXIa ΔY (efficacy) (factor XIa) [%] |
| --- | --- | --- | --- | --- | --- | --- | --- | --- | --- | --- |
| Nc1c(/N=N/c2ccc(S(=O)(=O)CCOS(=O)(=O)O)cc2)c(S(=O)(=O)O)cc2cc(S(=O)(=O)O)c(/N=N/c3ccc(S(=O)(=O)CCOS(=O)(=O)O)cc3)c(O)c12 [compound 16] | > 65 |  |  | > 500 | > 150 | 704.6 ± 69 | > 208 fold | > 290 |  |  |
| Nc1c(S(=O)(=O)O)cc(Nc2ccc(Nc3nc(Cl)nc(Nc4ccccc4S(=O)(=O)O)n3)c(S(=O)(=O)O)c2)c2c1C(=O)c1ccccc1C2=O [compound 13] | > 48 | 1.9 ± 1.5 | 43 ± 11 | 86.9 ± 33.6 | > 150 | 1187.2 ± 175 | 28 fold |  |  |  |
| COc1cc(-c2ccc(/N=N/c3ccc4c(S(=O)(=O)O)cc(S(=O)(=O)O)c(N)c4c3O)c(OC)c2)ccc1/N=N/c1ccc2c(S(=O)(=O)O)cc(S(=O)(=O)O)c(N)c2c1O [compound 19] |  |  |  | > 100 | 6.2 ± 0.4 | 1840.7 ± 88 | at least 7 fold |  | 1.5 ± 0.1 | 106 ± 3 |

Continued, in another order:

| selectivity index for FXIIIa over factor XIa (factor XIa) [fold] | thrombin HS (Hill slope) (thrombin [1]) | thrombin ΔY (efficacy) (thrombin [1]) [%] | SMILES | IC50 (thrombin [1]) [µM] | IC50 (factor XIa) [µM] | APTT2X (concentration required to double APTT) (normal human plasma) [µM] | selectivity index for FXIIIa over thrombin (thrombin [2]) | concentration to double APTT as fold of the FXIIIa-IC50 (normal human plasma) [fold] | FXIa HS (Hill slope) (factor XIa) | FXIa ΔY (efficacy) (factor XIa) [%] |
| --- | --- | --- | --- | --- | --- | --- | --- | --- | --- | --- |
| > 30 |  |  | Nc1c(/N=N/c2ccc(Nc3nc(Cl)nc(Nc4cccc(S(=O)(=O)O)c4)n3)cc2S(=O)(=O)O)c(S(=O)(=O)O)cc2c(O)c(/N=N/c3ccc(Nc4nc(Cl)nc(Nc5cccc(S(=O)(=O)O)c5)n4)cc3S(=O)(=O)O)ccc12 [compound 14] | > 500 | > 150 | 583 ± 60 |  |  |  |  |
|  | 2.6 ± 1.0 | 62 ± 5 | Cc1cc(-c2ccc(/N=N/c3ccc4c(S(=O)(=O)O)cc(S(=O)(=O)O)c(N)c4c3O)c(C)c2)ccc1/N=N/c1ccc2c(S(=O)(=O)O)cc(S(=O)(=O)O)c(N)c2c1O [compound 18] |  |  | 224.3 ± 20 |  |  | 1.9 ± 0.3 | 104 ± 3 |
